Measurements as given in patent publication US10821091B2, “Retinoid compositions and methods of increasing immune cell-mediated killing of IDH mutant cancer cells” (UNIVERSITY OF PITTSBURGH—OF THE COMMONWEALTH SYSTEM OF …, priority 2017, dated 2020).

Experiments:
[1] = test system: RBP1-transduced IDH mutant cells; assay: RBP1 overexpression with retinol: NK cytotoxicity and gene expression; type: cell-based, human
Method: For RBP1 overexpression studies, IDH mutant glioma cells were transduced with RBP1 expressing lentiviral vectors (Origene Inc) for 3 hours. The cells were maintained in CM containing 10 μg/ml Puromycin to select for lentivirus-transduced cells. Cells transduced with a mock lentiviral vector were used as controls.
NK cytotoxicity assay. The flow cytometric CFSE/7-AAD cytotoxicity assay was performed as previously described with slight modifications. Astrocytes or Glioma cells (5×10^5) were labeled with 500 nM CFSE (from a 1 mM stock solution in dimethyl sulfoxide [Sigma] stored at −20° C.) in PBS for 15 min at 37° C. The cells were then washed twice in complete medium and used immediately for the cytotoxicity assay. The CFSE-labeled target cells (25,000 cells) were used at E (effector):T (target) ratios of 1:10. After 6 h incubation, the cells were stained with 0.25 μg/ml of 7-AAD and analyzed by flow cytometry.
Quantitative Real time RT-PCR. 5×10^5 IDH mutant and WT astrocytes, as well as patient glioma cells were lyzed in Trizol and RNA was extracted from the cells using the Chloroform extraction method. cDNA was transcribed from the RNA using iScript cDNA synthesis kit (BioRad). Real-time PCR was performed on an CFX96 Touch™ Real-Time PCR Detection System (Bio-Rad) equipped with a 96-well reaction plate. Briefly, 2 μL cDNA was added to 5 μL of the 2×SYBR Green PCR mastermix (Thermo Scientific), 800 nM of each primer, and water was added to 10 μL. The thermal denaturation protocol was run at the end of the PCR to determine the number of products that were present in the reaction. Reactions were typically run in triplicates. The cycle number at which the reaction crossed an arbitrarily-placed threshold (CT) was determined for each gene and the relative amount of each gene to 18 S rRNA was described using the equation 2^−ΔCT where ΔCT=(CTtargetRNA−CT18S rRNA).
RBP1 overexpression reverses immune evasion in IDH mutant gliomas. […] Cells were analyzed for NK cytotoxicity and gene expression of RA pathway genes. […]

[2] = mouse, in vivo
Method: Mice. 6-8 week old Balb/c nude mice (CAnN.Cg-Foxn1nu/Crl) were purchased from Charles River Laboratories. Mice were injected with 10^6 IDH WT or mutant primary glioma cells sub-cutaneously in the right flank. When the tumors were about 25 mm^2, ATRA treatment was started. 10 mg/Kg ATRA was administered to mice intra-peritoneally (i.p.) every alternate day until termination of the experiment. DMSO-treated mice were used as controls. The mice were monitored for signs of drug toxicity such as weight-loss, lethargy, skin lesions and diarrhea. The tumors were measured every 3 days, and the mice were sacrificed when the tumors were about 400 mm^2. For NK depletion experiments, 6-week old B6 nude mice (B6.Cg-Foxn1nu/J) were purchased from The Jackson Laboratory. NK depletion was performed by injecting mice with 200 μg of anti-NK1.1 antibody (Biolegend) i.p. on the day ATRA treatment was started. Mice injected with 200 μg of an isotype antibody were used as controls. Mice were bled and evaluated for circulating NKs by flow cytometry.
Retinoic acid has been used as a chemotherapeutic agent in a wide variety of cancers, in pre-clinical as well as clinical applications. 13-cis-RA is the most common form of RA used in clinics, and is effective in a variety of neoplasms. Therefore, the efficacy of 13-cis RA was compared with ATRA and Bexarotene (a synthetic retinoic acid analogue) in IDH mutant gliomas.

[3] = retinol added to RBP1-transduced IDH mutant cells, to wild type expression levels

SMILES | recognition and killing by NK cells ([1]; 10 μM retinol in medium of RBP1-transduced IDH mutant cells) | expression of NKG2D ligands (ULBP1, ULBP3) [1, 3] | expression of RA pathway genes [1, 3] | toxicity in treated mice (weight loss and wasting) [2]
CC1=C(/C=C/C(C)=C/C=C/C(C)=C/CO)C(C)(C)CCC1 [retinol] | significantly increased recognition and killing by NK cells | restored expression | restored expression | –
CC1=C(/C=C/C(C)=C/C=C/C(C)=C\C(=O)O)C(C)(C)CCC1 [13-cis RA, 13-cis retinoic acid] | – | – | – | Higher levels of toxicity
C=C(c1ccc(C(=O)O)cc1)c1cc2c(cc1C)C(C)(C)CCC2(C)C [Bexarotene] | – | – | – | Higher levels of toxicity
